According to ChEMBL document CHEMBL1130359, “In vivo immunosuppressive activity of some cyclolignans” (Bioorg Med Chem Lett, 1997):
≈ marks a conversion by molar mass, not a printed value.

How the values were obtained:
Mus musculus [1] = test: Tested in vivo for immunosuppressive activity in mouse using graft vs. Host rejection technique(GVHR); body weight at a dose of 0.15 mg/kg.; format: functional
Mus musculus [2] = test: Tested in vivo for immunosuppressive activity in mouse using graft vs. Host rejection technique(GVHR); % suppression at a dose of 15.0 mg/kg.; format: functional
Mus musculus [3] = test: Tested in vivo for immunosuppressive activity in mouse using graft vs. Host rejection technique(GVHR);% suppression at a dose of 0.15 mg/kg; format: functional
Mus musculus [4] = test: Tested in vivo for immunosuppressive activity in mouse using allogenic skin grafting technique(SG); weight at a dose of 1.50 mg/kg; format: functional; settings: dose 1.5 mg/kg
Mus musculus [5] = test: Tested in vivo for immunosuppressive activity in mouse using allogenic skin grafting technique(SG); weight at a dose of 15 mg/kg; format: functional
Mus musculus [6] = test: Tested in vivo for immunosuppressive activity in mouse using allogenic skin grafting technique(SG); weight lost at a dose of 0.15 mg/kg; format: functional
Mus musculus [7] = test: Tested in vivo for immunosuppressive activity in mouse using allogenic skin grafting technique(SG); weight lost at a dose of 1.50 mg/kg; format: functional; settings: dose 1.5 mg/kg
Mus musculus [8] = test: Tested in vivo for immunosuppressive activity in mouse using graft vs. Host rejection technique(GVHR); body weight at a dose of 1.5 mg/kg; format: functional
Mus musculus [9] = test: Tested in vivo for immunosuppressive activity in mouse using graft vs. Host rejection technique(GVHR); body weight at a dose of 15.0 mg/kg; format: functional
Mus musculus [10] = test: Tested in vivo for immunosuppressive activity in mouse using graft vs. Host rejection technique(GVHR); weight at a dose of 15 mg/kg; format: functional
Mus musculus [11] = test: Tested in vivo for immunosuppressive activity in mouse using graft vs. Host rejection technique(GVHR); % suppression at a dose of 1.5 mg/kg; format: functional
Mus musculus [12] = test: Tested in vivo for immunosuppressive activity in mouse using allogenic skin grafting technique(SG); graft survival relative to cyclophosphamide at a dose of 15.0 mg/kg; format: functional
Mus musculus [13] = organism: Mus musculus; test: Tested for immunosuppressive activity in mouse using allogenic MLR method; format: functional, organism-based
Mus musculus [14] = test: Tested in vivo for immunosuppressive activity in mouse using graft vs. Host rejection technique(GVHR); spleen index at a dose of 0.15 mg/kg; format: functional
Mus musculus [15] = test: Tested in vivo for immunosuppressive activity in mouse using graft vs. Host rejection technique(GVHR); spleen index at a dose of 1.5 mg/kg; format: functional
Mus musculus [16] = test: Tested in vivo for immunosuppressive activity in mouse using graft vs. Host rejection technique(GVHR); spleen index at a dose of 15.0 mg/kg; format: functional
Mus musculus [17] = test: Tested in vivo for immunosuppressive activity in mouse using graft vs. Host rejection technique(GVHR); spleen weight normalized to D8 body weight at a dose of 0.15 mg/kg; format: functional
Mus musculus [18] = test: Tested in vivo for immunosuppressive activity in mouse using graft vs. Host rejection technique(GVHR); spleen weight normalized to D8 body weight at a dose of 1.5 mg/kg; format: functional
Mus musculus [19] = test: Tested in vivo for immunosuppressive activity in mouse using graft vs. Host rejection technique(GVHR); spleen weight normalized to D8 body weight at a dose of 15.0 mg/kg; format: functional
Mus musculus [20] = test: Tested in vivo for immunosuppressive activity in mouse using allogenic skin grafting technique(SG); mean graft survival at a dose of 0.15 mg/kg; format: functional
Mus musculus [21] = test: Tested in vivo for immunosuppressive activity in mouse using allogenic skin grafting technique(SG); mean graft survival at a dose of 1.5 mg/kg; format: functional
Mus musculus [22] = test: Tested in vivo for immunosuppressive activity in mouse using allogenic skin grafting technique(SG); mean graft survival at a dose of 15.0 mg/kg.; format: functional
Mus musculus [23] = test: Tested in vivo for immunosuppressive activity in mouse using graft vs. Host rejection technique(GVHR); weight change at a dose of 0.15 mg/kg; format: functional
Mus musculus [24] = test: Tested in vivo for immunosuppressive activity in mouse using graft vs. Host rejection technique(GVHR); weight change at a dose of 1.5 mg/kg.; format: functional
Mus musculus [25] = test: Tested in vivo for immunosuppressive activity in mouse using graft vs. Host rejection technique(GVHR); weight change at a dose of 15.0 mg/kg; format: functional
Mus musculus [26] = test: Tested in vivo for immunosuppressive activity in mouse using allogenic skin grafting technique(SG); graft survival relative to cyclophosphamide at a dose of 1.5 mg/kg; format: functional
Mus musculus [27] = test: Tested in vivo for immunosuppressive activity in mouse using allogenic skin grafting technique(SG); graft survival relative to cyclophosphamide at a dose of 0.15 mg/kg; format: functional
[28] = Non-cytotoxic IMS activity (ratio LcV/MLR) was determined; format: functional
[29] = Tested in vitro for cytotoxicity against […](LcV) in cells; format: functional
Mus musculus [30] = test: Tested in vivo for immunosuppressive activity in mouse using allogenic skin grafting technique(SG); weight at a dose of 0.15 mg/kg; format: functional

Q: Which Body weight (Mus musculus [1]) does the source give for `COc1cc([C@@H]2c3cc(O)c(O)cc3[C@H](O)[C@H]3COC(=O)[C@H]23)cc(OC)c1OC` [6,7-O,O-DEMETHYLENEPODOPHYLLOTOXIN] here?
A: Its Body weight is 16.5 g.

Q: What about the Activity (Mus musculus [2]) of the same compound?
A: Its Activity is 44%.

Q: And the Activity (Mus musculus [3])?
A: The Activity was 167%.

Q: What about the Body weight (Mus musculus [4]) of the same compound?
A: The Body weight was 18.5 g.

Q: What about the Body weight (Mus musculus [5]) of the same compound?
A: The Body weight was 1.6 g.

Q: And the Body weight (Mus musculus [6])?
A: Its Body weight is 0.7 g.

Q: And the Body weight (Mus musculus [7])?
A: Its Body weight is 1 g.

Q: What about the Body weight (Mus musculus [8]) of the same compound?
A: Its Body weight is 16.8 g.

Q: What about the Body weight (Mus musculus [9]) of the same compound?
A: The Body weight was 16.3 g.

Q: And the Body weight (Mus musculus [10])?
A: The Body weight was 17.8 g.

Q: What about the Activity (Mus musculus [11]) of the same compound?
A: The Activity was 85%.

Q: And the graft survival (Mus musculus [12])?
A: Its graft survival is 1.09 days.

Q: What about the IC50 (Mus musculus [13]) of the same compound?
A: The IC50 was 5.63 ng/mL (≈ 0.014 µM).

Q: What about the SI (Mus musculus [14]) of the same compound?
A: The SI was 0.82.

Q: And the SI (Mus musculus [15])?
A: The SI was 1.04.

Q: And the SI (Mus musculus [16])?
A: The SI was 1.15.

Q: And the Spleen weight (Mus musculus [17])?
A: The Spleen weight was 4.1 g.

Q: And the Spleen weight (Mus musculus [18])?
A: Its Spleen weight is 5.2 g.

Q: And the Spleen weight (Mus musculus [19])?
A: Its Spleen weight is 5.75 g.

Q: And the Mean graft survival (Mus musculus [20])?
A: The Mean graft survival was 10 days.

Q: What about the Mean graft survival (Mus musculus [21]) of the same compound?
A: The Mean graft survival was 12.5 days.

Q: What about the Mean graft survival (Mus musculus [22]) of the same compound?
A: Its Mean graft survival is 10.7 days.

Q: And the Weight change (Mus musculus [23])?
A: The Weight change was -1.8%.

Q: What about the Weight change (Mus musculus [24]) of the same compound?
A: Its Weight change is 2.9%.

Q: What about the Weight change (Mus musculus [25]) of the same compound?
A: The Weight change was 1.8%.

Q: What about the graft survival (Mus musculus [26]) of the same compound?
A: Its graft survival is 1.28 days.

Q: What about the graft survival (Mus musculus [27]) of the same compound?
A: Its graft survival is 1.02 days.

Q: And the Ratio [28]?
A: The Ratio was over 4885.

Q: What about the Cytotoxicity [29] of the same compound?
A: Its Cytotoxicity is over 27.5 µg/mL.

Q: And the Body weight (Mus musculus [30])?
A: The Body weight was 18.7 g.
